Source: patent publication US12528807B2, “Solid forms of {6-[(2-amino-3-chloropyridin-4-yl)sulfanyl]-3-[(3S,4S)-4-amino-3-methyl-2-oxa-8-azaspiro[4.5]decan-8-yl]-5-methylpyrazin-2-yl} methanol, a SHP2 inhibitor” (Revolution Medicines, Inc., priority 2019, dated 2026)

Test: Relative thermodynamic stability of the anhydrous polymorphs and transition temperatures between them (thermal techniques)
Type: physicochemical
Settings: for Temperature at which the form is thermodynamically (physically) stable: approximate
Description: Forms A, B, C, and D are anhydrous polymorphs of Compound 1. Thermal techniques provide data that the relative stability of the forms change with temperature. Both Forms A and C are enantiotropically related to each other and to Form D; Form A is thermodynamically stable above approximately 80° C., Form C is the stable form between approximately 80 and 43° C., and Form D is physically stable below approximately 43° C. […]
Differential scanning calorimetry performed using TA instruments Q2000: Temperature calibration was performed using NIST-traceable indium metal. The sample was placed into an aluminum Tzero crimped pan and the weight was accurately recorded. A weighed aluminum pan configured as the sample pan was placed on the reference side of the cell. The samples were analyzed from −30 to 250° C. at a ramp rate of 10° C./min.
Differential scanning calorimetry performed using Mettler-Toledo DSC3+: Temperature calibration was performed using adamantane, phenyl salicylate, indium, tin, and zinc. The sample was placed into a hermetically sealed or an open aluminum DSC pan, and the weight was accurately recorded. A weighed aluminum pan configured as the sample pan was placed on the reference side of the cell. The samples were analyzed from −30 to 250° C. at a ramp rate of 10° C./min. Although thermograms are plotted by reference temperature (x-axis), results are reported according to sample temperatures.

Row | Compound | Thermodynamic stability in words | Conversion between Forms A, C, and D upon reaching the corresponding relevant temperatures | Relative Thermodynamic Stability of Polymorphs (above ~80° C.) | Relative Thermodynamic Stability of Polymorphs (between ~43 and ~65° C.) | Relative Thermodynamic Stability of Polymorphs (between ~65 and ~80° C.) | Relative Thermodynamic Stability of Polymorphs (subambient up to ~43° C.) | Estimated Transition Point Temperature between Enantiotropic Polymorphs, to Form D [°C] | Temperature at which the form is thermodynamically (physically) stable [°C] | Temperature at which the form is thermodynamically (physically) stable (listed as Form D) [°C] | Temperature at which the form is thermodynamically (physically) stable (listed as Form A) [°C] | Relationship to Form B (table of estimated transition point temperatures) (relative to Form B) | Estimated Transition Point Temperature between Enantiotropic Polymorphs, to Form C (transition to Form C) [°C]
1 | Cc1nc(N2CCC3(CC2)CO[C@@H](C)[C@H]3N)c(CO)nc1Sc1ccnc(N)c1Cl [Compound 1 Form B, {6-[(2-amino-3-chloropyridin-4-yl)sulfanyl]-3-[(3S,4S)-4-amino-3-methyl-2-oxa-8-azaspiro[4.5]decan-8-yl]-5-methylpyrazin-2-yl}methanol] | metastable form at all temperatures |  |  |  |  |  |  |  |  |  |  | 
2 | Cc1nc(N2CCC3(CC2)CO[C@@H](C)[C@H]3N)c(CO)nc1Sc1ccnc(N)c1Cl [Compound 1 Form C, {6-[(2-amino-3-chloropyridin-4-yl)sulfanyl]-3-[(3S,4S)-4-amino-3-methyl-2-oxa-8-azaspiro[4.5]decan-8-yl]-5-methylpyrazin-2-yl}methanol] |  | immediate (and reversible) | A > (C and D and B) | C > D > A > B | C > A > (D and B) | D > C > A > B | ~43 |  |  |  |  | 
3 | Cc1nc(N2CCC3(CC2)CO[C@@H](C)[C@H]3N)c(CO)nc1Sc1ccnc(N)c1Cl [Compound 1 Form D, {6-[(2-amino-3-chloropyridin-4-yl)sulfanyl]-3-[(3S,4S)-4-amino-3-methyl-2-oxa-8-azaspiro[4.5]decan-8-yl]-5-methylpyrazin-2-yl}methanol] |  | immediate (and reversible) | A > (C and D and B) | C > D > A > B | C > A > (D and B) | D > C > A > B |  | < 43 | < 43 |  |  | 
4 | Cc1nc(N2CCC3(CC2)CO[C@@H](C)[C@H]3N)c(CO)nc1Sc1ccnc(N)c1Cl [Compound 1 Form A, {6-[(2-amino-3-chloropyridin-4-yl)sulfanyl]-3-[(3S,4S)-4-amino-3-methyl-2-oxa-8-azaspiro[4.5]decan-8-yl]-5-methylpyrazin-2-yl}methanol] |  | immediate (and reversible) | A > (C and D and B) | C > D > A > B | C > A > (D and B) | D > C > A > B | ~65 | > 80 |  | > 80 | monotropic | ~80
